Source: US20180000085A1, “USE OF PICOLINAMIDE COMPOUNDS WITH FUNGICIDAL ACTIVITY” (DOW AGROSCIENCES LLC, priority 2014, published 2018)

Tests used:
[1] = system: Zymoseptoria tritici; assay: Leaf blotch of wheat (SEPTTR) disease control on wheat seedlings; assay type: in vivo; parameters: key to SEPTTR 1DP, HV activity at 100 ppm (% control rating) / SEPTTR 3DC, HV activity at 100 ppm (% control rating) / SEPTTR disease control, 1DP / SEPTTR disease control, 3DC / SEPTTR 1DP disease control rating, HV activity / SEPTTR 3DC disease control rating, HV activity / SEPTTR 3DC, LV activity at 125.1 g/H (% Control rating) / SEPTTR 1DP, LV activity at 125.1 g/H (% Control rating) / SEPTTR 1DP disease control rating, LV activity at 125.1 g/H / SEPTTR 3DC disease control rating, LV activity at 125.1 g/H / SEPTTR 3DC disease control rating, HV activity at 100 ppm / SEPTTR 1DP disease control rating, HV activity at 100 ppm / HV activity at 100 ppm SEPTTR 3DC (disease control rating) / HV activity at 100 ppm SEPTTR 1DP (disease control rating) / LV activity at 125.1 g/H SEPTTR 1DP (disease control rating) / LV activity at 125.1 g/H SEPTTR 3DC (disease control rating): A: > 80; B: ≤ 80; C: Not Tested; D: No Activity Observed in the Reported Assay; settings: for SEPTTR 1DP disease control rating, HV activity at 100 ppm / SEPTTR 3DC disease control rating, HV activity at 100 ppm / SEPTTR 1DP, HV activity at 100 ppm (% control rating) / SEPTTR 3DC, HV activity at 100 ppm (% control rating): high volume application; for SEPTTR 1DP disease control rating, HV activity at 100 ppm / SEPTTR 1DP disease control rating, LV activity at 125.1 g/H: 1 day protectant; for SEPTTR 3DC disease control rating, HV activity at 100 ppm / SEPTTR 3DC disease control rating, LV activity at 125.1 g/H: 3 day curative; for SEPTTR disease control, 1DP / SEPTTR disease control, 3DC: HV activity at 100 ppm, wheat; for SEPTTR 1DP disease control rating, HV activity / SEPTTR 3DC disease control rating, HV activity: HV application at 100 ppm
Method: (§1) All fungicides were evaluated using the aforementioned method for their activity vs. all target diseases, unless stated otherwise. Wheat leaf blotch and brown rust activity were also evaluated using track spray applications, in which case the fungicides were formulated as EC formulations, containing 0.1% Trycol 5941 in the spray solutions. Wheat plants (variety Yuma) were grown from seed in a greenhouse in 50% mineral soil/50% soil-less Metro mix until the first leaf was fully emerged, with 7-10 seedlings per pot. These plants were inoculated with an aqueous spore suspension of Zymoseptoria tritici either prior to or after fungicide treatments. After inoculation the plants were kept in 100% relative humidity (one day in a dark dew chamber followed by two to three days in a lighted dew chamber at 20° C.) to permit spores to germinate and infect the leaf. The plants were then transferred to a greenhouse set at 20° C. for disease to develop. When disease symptoms were fully expressed on the 1st leaves of untreated plants, infection levels were assessed on a scale of 0 to 100 percent disease severity. Percent disease control was calculated using the ratio of disease severity on treated plants relative to untreated plants.

[2] = system: Puccinia triticina; assay: Wheat brown rust (PUCCRT) disease control on wheat seedlings; assay type: in vivo; parameters: key to PUCCRT 3DC, HV activity at 100 ppm (% control rating) / PUCCRT disease control, 3DC / PUCCRT 1DP disease control rating, HV activity / PUCCRT 3DC disease control rating, HV activity / PUCCRT 3DC, LV activity at 125.1 g/H (% Control rating) / PUCCRT 1DP, LV activity at 125.1 g/H (% Control rating) / PUCCRT 3DC disease control rating, LV activity at 125.1 g/H / PUCCRT 1DP disease control rating, LV activity at 125.1 g/H / PUCCRT 3DC disease control rating, HV activity at 100 ppm / PUCCRT 1DP disease control rating, HV activity at 100 ppm / HV activity at 100 ppm PUCCRT 3DC (disease control rating) / LV activity at 125.1 g/H PUCCRT 1DP (disease control rating) / LV activity at 125.1 g/H PUCCRT 3DC (disease control rating): A: > 80; B: ≤ 80; C: Not Tested; D: No Activity Observed in the Reported Assay; settings: for PUCCRT 1DP disease control rating, HV activity at 100 ppm / PUCCRT 3DC disease control rating, HV activity at 100 ppm / PUCCRT 1DP, HV activity at 100 ppm (% control rating) / PUCCRT 3DC, HV activity at 100 ppm (% control rating): high volume application; for PUCCRT 1DP disease control rating, HV activity at 100 ppm / PUCCRT 1DP disease control rating, LV activity at 125.1 g/H: 1 day protectant; for PUCCRT 3DC disease control rating, HV activity at 100 ppm / PUCCRT 3DC disease control rating, LV activity at 125.1 g/H: 3 day curative; for PUCCRT disease control, 1DP / PUCCRT disease control, 3DC: HV activity at 100 ppm, wheat; for PUCCRT 1DP disease control rating, HV activity / PUCCRT 3DC disease control rating, HV activity: HV application at 100 ppm
Method: as §1, with “plants. Example B: Evaluation of Fungicidal Activity: Wheat Brown Rust (Puccinia triticina; Synonym: Puccinia recondita f. sp. Tritici; Bayer Code PUCCRT) Wheat plants (variety Yuma) were grown from seed in a greenhouse in 50% mineral soil/50% soil-less Metro mix until the first leaf was fully emerged, with 7-10 seedlings per pot. These plants were inoculated with an aqueous spore suspension of Puccinia triticina either prior to or after fungicide treatments. […] The plants were then transferred to a greenhouse set at 24° C. for disease to develop. Fungicide formulation, application and disease assessment followed the procedures as described in the Example A.” for “plants.”

[3] = low volume application, 125.1 g/H
[4] = 1 Day Protectant, wheat leaf blotch
[5] = 3 Day Curative, wheat leaf blotch
[6] = 1 Day Protectant, wheat brown rust
[7] = 3 Day Curative, wheat brown rust

Row | Structure (SMILES) | SEPTTR 1DP disease control rating, HV activity at 100 ppm [1] | SEPTTR 3DC disease control rating, HV activity at 100 ppm [1] | PUCCRT 1DP disease control rating, HV activity at 100 ppm [2] | PUCCRT 3DC disease control rating, HV activity at 100 ppm [2] | SEPTTR disease control, 1DP ([1]; 1 Day Protectant) | SEPTTR disease control, 3DC ([1]; 3 Day Curative) | SEPTTR 1DP disease control rating, HV activity [1, 4] | SEPTTR 3DC disease control rating, HV activity [1, 5] | SEPTTR 1DP, HV activity at 100 ppm (% control rating) [1] | SEPTTR 3DC, HV activity at 100 ppm (% control rating) [1] | PUCCRT disease control, 1DP ([2]; 1 Day Protectant) | PUCCRT disease control, 3DC ([2]; 3 Day Curative) | PUCCRT 1DP disease control rating, HV activity [2, 6] | PUCCRT 3DC disease control rating, HV activity [2, 7] | PUCCRT 1DP, HV activity at 100 ppm (% control rating) [2] | PUCCRT 3DC, HV activity at 100 ppm (% control rating) [2] | further results
1 | COc1ccnc(C(=O)NC(C)C(=O)OC(C)C(Oc2ccccc2)c2nccs2)c1O (mixture of isomers) [Cmpd 808] | B (≤ 80) | D | A (> 80) | B (≤ 80) |  |  |  |  |  |  |  |  |  |  |  |  | 
2 | COc1ccnc(C(=O)NC(Cc2ccccc2)C(=O)OC(C)C(Oc2ccccc2)C(C)C)c1O (mixture of isomers) [Cmpd 812] | B (≤ 80) | B (≤ 80) | A (> 80) | A (> 80) |  |  |  |  |  |  |  |  |  |  |  |  | 
3 | COc1ccnc(C(=O)NC(C)C(=O)OC(C)C(Oc2ccc(F)cc2)c2ccc(F)cc2)c1O (mixture of isomers) [Cmpd 838] | A (> 80) | A (> 80) | A (> 80) | B (≤ 80) |  |  |  |  |  |  |  |  |  |  |  |  | 
4 | COc1ccnc(C(=O)NC(C)C(=O)OC(C)C(Oc2ccccc2)c2nccs2)c1OCOC(C)=O (mixture of isomers) [Cmpd 861] |  |  |  |  |  |  |  |  |  |  |  |  |  |  |  |  | SEPTTR 1DP disease control rating, LV activity at 125.1 g/H [1, 3]: D; SEPTTR 3DC disease control rating, LV activity at 125.1 g/H [1, 3]: B (≤ 80); PUCCRT 1DP disease control rating, LV activity at 125.1 g/H [2, 3]: A (> 80); PUCCRT 3DC disease control rating, LV activity at 125.1 g/H [2, 3]: A (> 80)
5 | COc1ccnc(C(=O)NC(C)C(=O)OC(C)(C)C(Oc2ccccc2)C(C)C)c1OCOC(C)=O (mixture of isomers) [Cmpd 903] |  |  |  |  |  |  |  |  |  |  |  |  |  |  |  |  | SEPTTR 1DP disease control rating, LV activity at 125.1 g/H [1, 3]: B (≤ 80); SEPTTR 3DC disease control rating, LV activity at 125.1 g/H [1, 3]: A (> 80); PUCCRT 1DP disease control rating, LV activity at 125.1 g/H [2, 3]: B (≤ 80); PUCCRT 3DC disease control rating, LV activity at 125.1 g/H [2, 3]: D
6 | COc1ccnc(C(=O)NC(C(=O)OC(C)C(Oc2ccccc2)C(C)C)C(F)(F)F)c1O (mixture of isomers) [Cmpd 1018] | A (> 80) | D | A (> 80) | A (> 80) |  |  |  |  |  |  |  |  |  |  |  |  | 
7 | COc1ccnc(C(=O)NC(C(=O)OC(C)C(Oc2ccccc2)C(C)C)C(F)(F)F)c1OCOC(C)=O (mixture of isomers) [Cmpd 1073] |  |  |  |  |  |  |  |  |  |  |  |  |  |  |  |  | LV activity at 125.1 g/H SEPTTR 1DP (disease control rating) ([1]; low volume application, 125.1 g/H, 1 Day Protectant, wheat leaf blotch): B (≤ 80); LV activity at 125.1 g/H SEPTTR 3DC (disease control rating) ([1]; low volume application, 125.1 g/H, 3 Day Curative, wheat leaf blotch): B (≤ 80); LV activity at 125.1 g/H PUCCRT 1DP (disease control rating) ([2]; low volume application, 125.1 g/H, 1 Day Protectant, wheat brown rust): A (> 80); LV activity at 125.1 g/H PUCCRT 3DC (disease control rating) ([2]; low volume application, 125.1 g/H, 3 Day Curative, wheat brown rust): A (> 80)
8 | CCCOC(CC)C(Oc1ccccc1)C(C)OC(=O)C(C)NC(=O)c1nccc(OC)c1O (stereo not shown) [Cmpd 289] |  |  |  |  | B (≤ 80) | A (> 80) | B (≤ 80) | A (> 80) | B (≤ 80) | A (> 80) | A (> 80) | A (> 80) | A (> 80) | A (> 80) | A (> 80) | A (> 80) | 
9 | CCCOC(CC)C(Oc1ccccc1)C(C)OC(=O)C(NC(=O)c1nccc(OC)c1O)C(C)C (stereo not shown) [Cmpd 290] |  |  |  |  | B (≤ 80) | B (≤ 80) | B (≤ 80) | B (≤ 80) | B (≤ 80) | B (≤ 80) | A (> 80) | B (≤ 80) | A (> 80) | B (≤ 80) | A (> 80) | B (≤ 80) | 
10 | CCCOC(CC)C(Oc1ccccc1)C(C)OC(=O)C(CC(C)C)NC(=O)c1nccc(OC)c1O (stereo not shown) [Cmpd 291] |  |  |  |  | D | D | D | D | D | D | B (≤ 80) | D | B (≤ 80) | D | B (≤ 80) | D | 
11 | CC[C@H](Cc1ccccc1)[C@@H](OCC(C)C)[C@H](C)OC(=O)[C@H](C)NC(=O)c1nccc(OC)c1O [Cmpd 293, (S)-(2S,3R,4R)-4-benzyl-3-isobutoxyhexan-2-yl-2-(3-hydroxy-4-methoxypicolinamido)propanoate] |  |  |  |  | A (> 80) | B (≤ 80) | A (> 80) | B (≤ 80) | A (> 80) | B (≤ 80) | A (> 80) | B (≤ 80) | A (> 80) | B (≤ 80) | A (> 80) | B (≤ 80) | 
12 | CCCOC(CC)C(Oc1ccccc1)C(C)OC(=O)C(C)NC(=O)c1nccc(OC)c1O (stereo not shown) [Cmpd 295] |  |  |  |  | D | B (≤ 80) | D | B (≤ 80) | D | B (≤ 80) | B (≤ 80) | B (≤ 80) | B (≤ 80) | B (≤ 80) | B (≤ 80) | B (≤ 80) | 
